{
  "source": "paper PMC8878317",
  "about": "“Chemogenomics identifies acetyl-coenzyme A synthetase as a target for malaria treatment and prevention” (Cell Chemical Biology, 2022)",
  "system": "P. falciparum 3D7 parasites",
  "test": "Metabolomic profiling of compound-treated parasites (LC/MS);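 for Metabolite data: 3-Phosphoglycerate: Log2 fold change in abundance versus untreated parasite controls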;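 for Metabolite data: Myo-Inositol: Log2 fold change in abundance versus untreated parasite controls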;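 for Metabolite data: N-Carbamoyl-L-Aspartate: Log2 fold change in abundance versus untreated parasite controls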;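 for Metabolite data: Nicotinate: Log2 fold change in abundance versus untreated parasite controls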",
  "assay_type": "cell-based",
  "set-up": "Metabolite data: dTMP / Metabolite data: GMP / Metabolite data: S-Adenosyl-L-Homocysteine / Metabolite data: 1_3-Bisphosphoglyceric acid: scale not given here",
  "protocol": "The metabolite extraction protocol was performed as described elsewhere ([Allman et al., 2016]). Briefly, 1 mL of trophozoites that were magnetically purified to a concentration of 1×10^8 parasites/mL were placed into wells with 4 mL of RPMI 1640 media and allowed to recover for one hour. […] The culture was incubated for another 2.5 hr. The culture was centrifuged and quenched with 90% methanol containing 0.25 μM ^13C,^15N-Labeled-Aspartate, vortexed, and centrifuged. The supernatant was transferred to a new tube and dried for storage. Prior to analysis, the samples were resuspended to a final concentration of 1×10^8 parasites/mL in a solution of 3% methanol:water containing 1 μM chlorpropamide as an internal standard.\nThe chromatographic conditions used in this experiment were performed with slight modifications from previous methods ([Zhang et al., 2018]). Briefly, a Waters XSelect HSS C18 column was used on a gradient reverse-phase chromatographic configuration with 97:3 water:methanol with 10 mM tributylamine and 15 mM acetic acid (solvent A) and methanol (solvent B). A Thermo-Scientific Exactive Plus Orbitrap mass spectrometer was operated in negative mode for the detection of the metabolites. Peak picking and integration were performed using El-Maven LC/MS data processing software. The peak data were then exported to Excel where metabolite areas were normalized to the internal standards, blank subtracted, and averaged by condition.",
  "data": [
    {"smiles": "COc1cc2[nH]c(C)c(-c3ccc(Oc4ccc(OC(F)(F)F)cc4)cc3)c(=O)c2cc1Cl", "note": "[ELQ-300]", "values": [
      {"measurement": "Metabolite data: 1_3-Bisphosphoglyceric acid", "value": 0},
      {"measurement": "Metabolite data: 2_3-Diphosphoglyceric acid", "value": -0.1098},
      {"measurement": "Metabolite data: 3-Phosphoglycerate", "value": 0.01477},
      {"measurement": "Metabolite data: 4-Aminobutyrate", "value": 0.29},
      {"measurement": "Metabolite data: 4-Phosphopantothenate", "value": -0.3711},
      {"measurement": "Metabolite data: 4-phosphopantetheine", "value": 0},
      {"measurement": "Metabolite data: 5-aminopentanoic acid", "value": 0},
      {"measurement": "Metabolite data: 5-phosphoribosyl-1-pyrophosphate", "value": 0},
      {"measurement": "Metabolite data: 6-Phospho-D-Gluconate", "value": 0.1987},
      {"measurement": "Metabolite data: ADP-D-Glucose", "value": -0.03292},
      {"measurement": "Metabolite data: Acetyl-CoA", "value": -0.7931},
      {"measurement": "Metabolite data: Acetyllysine", "value": -0.0938},
      {"measurement": "Metabolite data: Aconitate", "value": 0.3201},
      {"measurement": "Metabolite data: CDP", "value": -0.9142},
      {"measurement": "Metabolite data: CDP-Ethanolamine", "value": -0.4266},
      {"measurement": "Metabolite data: CDP-choline", "value": 0},
      {"measurement": "Metabolite data: CMP", "value": -0.5539},
      {"measurement": "Metabolite data: CTP", "value": -0.7898},
      {"measurement": "Metabolite data: Citrate/Isocitrate", "value": 0.1898},
      {"measurement": "Metabolite data: Cyclic-AMP", "value": 0.1104},
      {"measurement": "Metabolite data: Dihydroorotate", "value": 5.061},
      {"measurement": "Metabolite data: FAD", "value": 0.09303},
      {"measurement": "Metabolite data: FMN", "value": -1.009},
      {"measurement": "Metabolite data: Fructose-1,6-Bisphosphate", "value": 0.1196},
      {"measurement": "Metabolite data: Fumarate", "value": 0.1542},
      {"measurement": "Metabolite data: GDP", "value": -0.04006},
      {"measurement": "Metabolite data: GMP", "value": 0.4588},
      {"measurement": "Metabolite data: GTP", "value": 0.1697},
      {"measurement": "Metabolite data: Glucose-1/6-Phosphate", "value": 0.2608},
      {"measurement": "Metabolite data: Glutathione Disulfide", "value": -0.1199},
      {"measurement": "Metabolite data: Hexose", "value": 0},
      {"measurement": "Metabolite data: Hydroxyisocaproic acid", "value": 0},
      {"measurement": "Metabolite data: Indole", "value": 0.2721},
      {"measurement": "Metabolite data: Ketoleucine", "value": 0},
      {"measurement": "Metabolite data: L-arginino-succinate", "value": 0},
      {"measurement": "Metabolite data: Lactate", "value": -0.08432},
      {"measurement": "Metabolite data: Malate", "value": 0.0586},
      {"measurement": "Metabolite data: Myo-Inositol", "value": -0.4815},
      {"measurement": "Metabolite data: N-Acetyl-Glutamate", "value": 0.1479},
      {"measurement": "Metabolite data: N-Acetyl-L-Alanine", "value": -0.6073},
      {"measurement": "Metabolite data: N-Acetyl-L-Ornithine", "value": -0.1715},
      {"measurement": "Metabolite data: N-Carbamoyl-L-Aspartate", "value": 4.761},
      {"measurement": "Metabolite data: NAD+", "value": 0.09044},
      {"measurement": "Metabolite data: NADH", "value": 1.43},
      {"measurement": "Metabolite data: NADP+", "value": -0.1602},
      {"measurement": "Metabolite data: NADPH", "value": 3.029},
      {"measurement": "Metabolite data: Nicotinate", "value": 0.05305},
      {"measurement": "Metabolite data: Octulose 8/1-Phosphate", "value": -0.704},
      {"measurement": "Metabolite data: Orotate", "value": 0.01858},
      {"measurement": "Metabolite data: PD", "value": -0.006669},
      {"measurement": "Metabolite data: PE", "value": -0.3407},
      {"measurement": "Metabolite data: PEEK", "value": -0.3859},
      {"measurement": "Metabolite data: Phenol Red", "value": 0},
      {"measurement": "Metabolite data: Pyroglutamic acid", "value": 0.05668},
      {"measurement": "Metabolite data: S-Adenosyl-L-Homocysteine", "value": -1.868},
      {"measurement": "Metabolite data: S-methyl-5'-thioadenosine", "value": -0.1055},
      {"measurement": "Metabolite data: SD", "value": -0.2791},
      {"measurement": "Metabolite data: Sedoheptulose Bisphosphate", "value": 0.0682},
      {"measurement": "Metabolite data: UDP", "value": -1.596},
      {"measurement": "Metabolite data: UDP-D-Glucose", "value": -0.0232},
      {"measurement": "Metabolite data: UDP-D-Glucuronate", "value": 0.002049},
      {"measurement": "Metabolite data: UDP-N-Acetyl-Glucosamine", "value": -0.1795},
      {"measurement": "Metabolite data: UMP", "value": -0.8903},
      {"measurement": "Metabolite data: UTP", "value": -1.292},
      {"measurement": "Metabolite data: a-ketoglutarate", "value": 0.1255},
      {"measurement": "Metabolite data: acetyl-aspartate", "value": 0},
      {"measurement": "Metabolite data: arginine", "value": 0},
      {"measurement": "Metabolite data: asparagine", "value": 0},
      {"measurement": "Metabolite data: aspartate", "value": 0},
      {"measurement": "Metabolite data: biotin", "value": 0},
      {"measurement": "Metabolite data: chlorpropamide", "value": 0},
      {"measurement": "Metabolite data: coenzyme A", "value": 0},
      {"measurement": "Metabolite data: dAMP", "value": -0.0907},
      {"measurement": "Metabolite data: dATP", "value": 0.4618},
      {"measurement": "Metabolite data: dCDP", "value": -0.107},
      {"measurement": "Metabolite data: dCMP", "value": -0.1246},
      {"measurement": "Metabolite data: dCTP", "value": -0.4381},
      {"measurement": "Metabolite data: dGDP/ADP", "value": -0.01599},
      {"measurement": "Metabolite data: dGMP/AMP", "value": -0.06466},
      {"measurement": "Metabolite data: dGTP/ATP", "value": 0},
      {"measurement": "Metabolite data: dTDP", "value": -1.258},
      {"measurement": "Metabolite data: dTMP", "value": -1.023},
      {"measurement": "Metabolite data: dTTP", "value": -1.011},
      {"measurement": "Metabolite data: folate", "value": 0},
      {"measurement": "Metabolite data: glucono-lactone", "value": 0},
      {"measurement": "Metabolite data: glutamate", "value": 0},
      {"measurement": "Metabolite data: glutamine", "value": 0},
      {"measurement": "Metabolite data: glutathione", "value": 0},
      {"measurement": "Metabolite data: histidine", "value": 0},
      {"measurement": "Metabolite data: hydroxyproline/Aminolevulinate", "value": 0},
      {"measurement": "Metabolite data: isoleucine", "value": 0},
      {"measurement": "Metabolite data: leucine", "value": 0},
      {"measurement": "Metabolite data: maleic acid", "value": 0},
      {"measurement": "Metabolite data: methionine", "value": 0},
      {"measurement": "Metabolite data: nicotinamide mononucleotide", "value": 0},
      {"measurement": "Metabolite data: orotidine-5'-phosphate", "value": 0}
    ]}
  ]
}
